Patent publication US6750224B1, “Antibacterial optically pure benzoquinolizine carboxylic acids, processes, compositions and methods of treatment” (priority 1999, dated 2004)
Values after ≈ are worked out from the molar mass of the structure shown. Where two headings read alike, the source gives them in different places.

How the values were obtained:
MRSE STE-22 = test: In-vitro antimicrobial activity test (MIC, NCCLS); type: cell-based, Staphylococcus epidermidis
Excerpt: (§1) The test method was in accordance with the standard NCCLS protocol.

Pseudomonas aeruginosa = test: In-vitro antimicrobial activity test (MIC, NCCLS); type: cell-based
Excerpt: as §1

[1] = test system: Staphylococcus aureus ATCC 25923; test: In-vitro antimicrobial activity test (MIC, NCCLS); type: cell-based
Excerpt: as §1

Corynebacterium jeikeium = test: In-vitro antimicrobial activity test (MIC, NCCLS); type: cell-based
Excerpt: as §1

Haemophilus influenzae = test: In-vitro antimicrobial activity test (MIC, NCCLS); type: cell-based
Excerpt: as §1

Serratia marcescens = test: In-vitro antimicrobial activity test (MIC, NCCLS); type: cell-based
Excerpt: as §1

[2] = test system: Viridans group Streptococci; test: In-vitro antimicrobial activity test (MIC, NCCLS); type: cell-based
Excerpt: as §1

[3] = test system: Mycobacterium tuberculosis ATCC 27294; test: In-vitro antimicrobial activity test (MIC, NCCLS); type: cell-based
Excerpt: as §1

Propioni bacterium acnes = test: In-vitro antimicrobial activity test (MIC, NCCLS); type: cell-based
Excerpt: as §1

Bacteroides fragilis = test: In-vitro antimicrobial activity test (MIC, NCCLS); type: cell-based
Excerpt: as §1

[4] = test system: Enterococcus faecalis ATCC 29212; test: In-vitro antimicrobial activity test (MIC, NCCLS); type: cell-based
Excerpt: as §1

[5] = test system: Mycobacterium intracellulare; test: In-vitro antimicrobial activity test (MIC, NCCLS); type: cell-based
Excerpt: as §1

Mycobacterium avium = test: In-vitro antimicrobial activity test (MIC, NCCLS); type: cell-based
Excerpt: as §1

[6] = test system: Escherichia coli ATCC 25922; test: In-vitro antimicrobial activity test (MIC, NCCLS); type: cell-based
Excerpt: as §1

[7] = test system: Chryseobacterium meningosepticum; test: In-vitro antimicrobial activity test (MIC, NCCLS); type: cell-based
Excerpt: as §1

[8] = test system: Streptococcus pneumoniae ATCC 6303; test: In-vitro antimicrobial activity test (MIC, NCCLS); type: cell-based
Excerpt: as §1

Enterococcus faecium = test: In-vitro antimicrobial activity test (MIC, NCCLS); type: cell-based
Excerpt: as §1

Streptococcus pyogenes = test: In-vitro antimicrobial activity test (MIC, NCCLS); type: cell-based
Excerpt: as §1

in vivo = test: in vivo; design: species or system Swiss mice; conditions: Swiss, mouse, po, 30 mg/kg
Description: The blood levels of RS-(±)-Nadifloxacin and S-(−)-Nadifloxacin administered orally to Swiss mice at a dose of 30mg/kg are shown in Table 3 with respect to the AUC (μg/ml.hr), monitored from 15 minutes to 4 hours.

MRSA STA-4 = test: In-vitro antimicrobial activity test (MIC, NCCLS); type: cell-based, Staphylococcus aureus
Excerpt: as §1

[9] = test system: Mupirocin-resistant Staph STA-34; test: In-vitro antimicrobial activity test (MIC, NCCLS); type: cell-based, Staphylococcus aureus
Excerpt: as §1

[10] = Acute intravenous toxicity in mice; conditions: mouse, in vivo, iv
Serratia marcescens 2702 = test: Effect of pH on potency of fluoroquinolones (MIC at pH 5.5 and 7.0); type: cell-based; conditions: MIC pH 7 vs pH 5.5
Excerpt: (§2) The test method was in accordance with the standard NCCLS protocol employing test media adjusted at pH 5.5 and 7.0.

P. rettgeri N 1764 = test: as above; type: cell-based; conditions: MIC pH 7 vs pH 5.5
Excerpt: as §2

E. faecalis = test: as above; type: cell-based; conditions: MIC pH 7 vs pH 5.5
Excerpt: as §2

E. coli 25922 = test: as above; type: cell-based; conditions: MIC pH 7 vs pH 5.5
Excerpt: as §2

P. vulgaris 66 = test: as above; type: cell-based; conditions: MIC pH 7 vs pH 5.5
Excerpt: as §2

S. aureus 1199-B = test: as above; type: cell-based; conditions: MIC pH 7 vs pH 5.5
Excerpt: as §2

Klebsiella 24037 = test: as above; type: cell-based; conditions: MIC pH 7 vs pH 5.5
Excerpt: as §2

S. aureus 25923 = test: as above; type: cell-based; conditions: MIC pH 7 vs pH 5.5
Excerpt: as §2

Ps. Aeruginosa = test: as above; type: cell-based; conditions: MIC pH 7 vs pH 5.5
Excerpt: as §2

Acinetobacter 3109 = test: as above; type: cell-based; conditions: MIC pH 7 vs pH 5.5
Excerpt: as §2

P. mirabilis 37 = test: as above; type: cell-based; conditions: MIC pH 7 vs pH 5.5
Excerpt: as §2

E. coli 2015 = test: as above; type: cell-based; conditions: MIC pH 7 vs pH 5.5
Excerpt: as §2

[11] = test system: S.aureus strain bearing Nor A efflux pump; type: cell-based; conditions: Nor A efflux pump strain vs strain devoid of efflux pump
Description: Using this set of MIC values, % loss in potency due to efflux was calculated for each of the fluoroquinolone in Table 5

[12] = Equilibrium moisture content determination at several relative humidities; type: physicochemical; conditions: Karl Fischer
Excerpt: Silica (anhydrous) and three saturated solutions of electrolytes prepared by dissolving the respective salts in water were each introduced into different desiccators to control the inner relative humidity to a specific value as represented in the following Table 7. Then, the equilibrium moisture contents of S-(−)-9-fluoro-6,7-dihydro-8-(4-hydroxypiperidin-1-yl)-5-methyl-1-oxo-1H,5H-benzo[i,j]quinolizine-2-carboxylic acid anhydrate and S-(−)-9-fluoro-6,7-dihydro-8-(4-hydroxypiperidin-1-yl)-5-methyl-1-oxo-1H,5H-benzo[i,j]quinolizine-2-carboxylic acid 0.2 hydrate prepared in Examples 1 and 2 respectively were determined at several relative humidities.
Specifically, 1 g of the sample was spread on a pre-weighed petridish and the total weight was accurately measured, then both the samples were placed in each desiccator of Table 8 The dessicators were allowed to stand at normal temperature for at least 3 days and the weight was measured agingly over this period. The weight changes were tabulated. At the end of 3 days all samples were taken to be weighed. The moisture content of each sample was determined by Karl Fischer analysis. Equilibrium moisture content at each relative humidity is represented in FIG. 1 (anhydrate) and FIG. 2 (0.2 hydrate).

[13] = Chemical stability under heating (HPLC); type: physicochemical
Description: The anhydride and hydrates were each introduced into a glass vial and maintained at 70° C. Thus the thermal decomposition with elapsed time was analysed by HPLC and the results thus obtained are described in Table 8

## CC1CCc2c(N3CCC(O)CC3)c(F)cc3c(=O)c(C(=O)O)cn1c23 (racemic) [RS-(±)-Nadifloxacin, (±)-9-fluoro-8-(4-hydroxypiperidin-1-yl)-5-methyl-6,7-dihydro-1-oxo-1H-5H-benzo[i,j]quinolizine-2-carboxylic acid]
MRSE STE-22
  MIC: 1.56 µg/mL (≈ 4.33 µM)
Pseudomonas aeruginosa
  MIC: 3.12 µg/mL (≈ 8.66 µM)
[1]
  MIC: 0.05 µg/mL (≈ 0.139 µM)
Corynebacterium jeikeium
  MIC: 0.2 µg/mL (≈ 0.555 µM)
Haemophilus influenzae
  MIC: 0.05 µg/mL (≈ 0.139 µM)
Serratia marcescens
  MIC: 1.56 µg/mL (≈ 4.33 µM)
[2]
  MIC: 0.4 µg/mL (≈ 1.11 µM)
[3]
  MIC: 1.56 µg/mL (≈ 4.33 µM)
Propioni bacterium acnes
  MIC: 0.2 µg/mL (≈ 0.555 µM)
Bacteroides fragilis
  MIC: 3.12 µg/mL (≈ 8.66 µM)
[4]
  MIC: 0.4 µg/mL (≈ 1.11 µM)
[5]
  MIC: 3.12 µg/mL (≈ 8.66 µM)
Mycobacterium avium
  MIC: 6.25 µg/mL (≈ 17.3 µM)
[6]
  MIC: 0.8 µg/mL (≈ 2.22 µM)
[7]
  MIC: 1.56 µg/mL (≈ 4.33 µM)
[8]
  MIC: 0.4 µg/mL (≈ 1.11 µM)
Enterococcus faecium
  MIC: 0.8 µg/mL (≈ 2.22 µM)
Streptococcus pyogenes
  MIC: 0.4 µg/mL (≈ 1.11 µM)
In vivo
  AUC: 16900 ng·h/mL
MRSA STA-4
  MIC: 0.8 µg/mL (≈ 2.22 µM)
[9]
  MIC: 1.56 µg/mL (≈ 4.33 µM)
[10]
  LD50: 311 mg/kg

## O=C(O)c1cn(C2CC2)c2cc(N3CCNCC3)c(F)cc2c1=O [Ciprofloxacin]
Serratia marcescens 2702
  % change in potency at pH 5.5, loss (−)/gain (+): −99%
P. rettgeri N 1764
  % change in potency at pH 5.5, loss (−)/gain (+): −94%
E. faecalis
  % change in potency at pH 5.5, loss (−)/gain (+): −87.5%
E. coli 25922
  % change in potency at pH 5.5, loss (−)/gain (+): −97.5%
P. vulgaris 66
  % change in potency at pH 5.5, loss (−)/gain (+): −96%
S. aureus 1199-B
  % change in potency at pH 5.5, loss (−)/gain (+): −75%
Klebsiella 24037
  % change in potency at pH 5.5, loss (−)/gain (+): −97%
S. aureus 25923
  % change in potency at pH 5.5, loss (−)/gain (+): −75%
Ps. Aeruginosa
  % change in potency at pH 5.5, loss (−)/gain (+): −87%
Acinetobacter 3109
  % change in potency at pH 5.5, loss (−)/gain (+): −97%
P. mirabilis 37
  % change in potency at pH 5.5, loss (−)/gain (+): −96%
E. coli 2015
  % change in potency at pH 5.5, loss (−)/gain (+): −94%

## NC1CCN(c2c(F)cc3c(=O)c(C(=O)O)cn(C4CC4)c3c2Cl)C1 (centres unmarked) [Clinafloxacin]
[11]
  % loss in potency for S. aureus bearing Efflux pump: 87.5%

## C[C@H]1CCc2c(N3CCC(O)CC3)c(F)cc3c(=O)c(C(=O)O)cn1c23 [Example 1, S-(−)-9-fluoro-6,7-dihydro-8-(4-hydroxypiperidin-1-yl)-5-methyl-1-oxo-1H,5H-benzo[i,j]quinolizine-2-carboxylic acid anhydrate]
[12]; relative humidity 20% to 58%
  equilibrium moisture content: around 0.1%
[12]; relative humidity 75% to 95%
  equilibrium moisture content: around 1%
[13]; 1 week, HPLC
  Thermal stability with elapsed time at 70° C.: 98.7%
[13]; 2 week, HPLC
  Thermal stability with elapsed time at 70° C.: 98.6%
[13]; Initial, HPLC
  Thermal stability with elapsed time at 70° C.: 98.9%

## C[C@H]1CCc2c(N3CCC(O)CC3)c(F)cc3c(=O)c(C(=O)O)cn1c23.O [Example 2, S-(−)-9-fluoro-6,7-dihydro-8-(4-hydroxypiperidin-1-yl)-5-methyl-1-oxo-1H,5H-benzo[i,j]quinolizine-2-carboxylic acid 0.2 hydrate]
[12]; relative humidity 20% to 95%
  equilibrium moisture content: around 1%
[13]
  Thermal stability with elapsed time at 70° C.: 98.7%
  chemical stability at 70° C., in words: same degree of chemical stability as the anhydrate

## C[C@H]1CCc2c(N3CCC(O)CC3)c(F)cc3c(=O)c(C(=O)O)cn1c23.C[C@H]1CCc2c(N3CCC(O)CC3)c(F)cc3c(=O)c(C(=O)O)cn1c23.O [Example 3, S-(−)-9-fluoro-6,7-dihydro-8-(4-hydroxypiperidin-1-yl)-5-methyl-1-oxo-1H,5H-benzo[i,j]quinolizine-2-carboxylic acid 0.5 hydrate]
[13]
  Thermal stability with elapsed time at 70° C.: 98.1%
  chemical stability at 70° C., in words: decompose with time

## C[C@H]1CCc2c(N3CCC(O)CC3)c(F)cc3c(=O)c(C(=O)O)cn1c23.O [Example 4, S-(−)-9-fluoro-6,7-dihydro-8-(4-hydroxypiperidin-1-yl)-5-methyl-1-oxo-1H,5H-benzo[i,j]quinolizine-2-carboxylic acid 0.75 hydrate]
[13]
  Thermal stability with elapsed time at 70° C.: 98.3%
  chemical stability at 70° C., in words: decompose with time
